pIC50: −log10 of the molar value.
Columns and labels:
[1] = tested on: JAK1/JAK2-dependent nuclear translocation of STAT1-GFP in HT1080 fibrosarcoma cells; assay: STAT1 nuclear translocation assay (Cellomics), IFN-γ stimulated HT1080 STAT1-GFP cells; type: cell-based; conditions: Homo sapiens, HT-1080, STAT1 translocation pathway
In short: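 IC50 derived from percent nuclear STAT1-GFP translocation, computed from nuclear minus cytoplasmic GFP intensity against untreated baseline and DMSO-stimulated control. Stable HT1080 STAT1-GFP cells received compound (0.003–10 μM, 0.1% DMSO) 30 min ahead of a 2 h 100 ng/ml IFN-γ stimulus, then fixation and Hoechst nuclear masking.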

GST-JAK2(808-1132) = target: T1, GST-JAK2(808-1132) (Homo sapiens, UniProt O60674); assay: JAK2 kinase assay (Caliper mobility shift, LabChip 3000); type: biochemical
T1 construct: GST-JAK2(808-1132); purchased Invitrogen (Carlsbad, USA) #4288
T1 sequence (O60674 808-1132): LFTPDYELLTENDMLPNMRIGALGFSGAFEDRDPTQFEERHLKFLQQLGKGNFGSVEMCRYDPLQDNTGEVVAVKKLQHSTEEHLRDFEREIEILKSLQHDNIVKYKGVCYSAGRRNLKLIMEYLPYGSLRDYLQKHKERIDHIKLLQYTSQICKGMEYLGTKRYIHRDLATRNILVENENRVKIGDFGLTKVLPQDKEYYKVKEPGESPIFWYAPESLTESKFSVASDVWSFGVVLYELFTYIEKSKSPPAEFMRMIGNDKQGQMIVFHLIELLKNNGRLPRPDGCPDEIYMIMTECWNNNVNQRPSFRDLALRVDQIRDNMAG
In short: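 Eight-point compound series (final 10–0.003 μM) tested on purchased GST-JAK2 kinase domain (808-1132). Peptide FITC-JAK3tide plus ATP reacted 60 min, 30 °C, then quenched with EDTA; turnover from charge-based separation of substrate and product.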

SMILES	pIC50 [1]	pIC50 (GST-JAK2(808-1132))
CC(C)Oc1ccc(Nc2ncc3ccn(-c4ccc(C5(C(=O)N6CCN(C)CC6)CC5)cc4)c3n2)cc1 [Example 103, (1-{4-[2-(4-Isopropoxy-phenylamino)-pyrrolo[2,3-d]pyrimidin-7-yl]-phenyl}-cyclopropyl)-(4-methyl-piperazin-1-yl)-methanone]	6.66	> 8.52
CC(C)Oc1ccc(Nc2ncc3ccn(-c4ccc(N5CCNCC5=O)cc4)c3n2)cc1 [Example 104, 1-{4-[2-(4-Isopropoxy-phenylamino)-pyrrolo[2,3-d]pyrimidin-7-yl]-phenyl}-piperazin-2-one]	6.06	8.44
CC(C)Oc1ccc(Nc2ncc3ccn(-c4ccc(N5CCCC5=O)cc4)c3n2)cc1 [Example 105, 1-{4-[2-(4-Isopropoxy-phenylamino)-pyrrolo[2,3-d]pyrimidin-7-yl]-phenyl}-pyrrolidin-2-one]	5.23	7.94
CC(C)Oc1ccc(Nc2ncc3ccn(-c4ccc(CN5CCCC5)cc4)c3n2)cc1 [Example 107, (4-Isopropoxy-phenyl)-[7-(4-pyrrolidin-1-ylmethyl-phenyl)-7H-pyrrolo[2,3-d]pyrimidin-2-yl]-amine]	5.74	8.09
CC(C)Oc1ccc(Nc2ncc3ccn(-c4ccc(CN5CCCNCC5)c(F)c4)c3n2)cc1 [Example 108]	5.77	8.18
CC(C)Oc1ccc(Nc2ncc3ccn(-c4ccc(CN5CCOCC5)cc4)c3n2)cc1 [Example 109, (4-Isopropoxy-phenyl)-[7-(4-morpholin-4-ylmethyl-phenyl)-7H-pyrrolo[2,3-d]pyrimidin-2-yl]-amine]	6.51	8.08
CC(C)Oc1ccc(Nc2ncc3ccn(-c4ccc(CN5CCOCC5)c(Cl)c4)c3n2)cc1 [Example 110, [7-(3-Chloro-4-morpholin-4-yl methyl-phenyl)-7H-pyrrolo[2,3-d]pyrimidin-2-yl]-(4-isopropoxy-phenyl)-amine]	5.95	7.87
Cc1cc(-n2ccc3cnc(Nc4ccc(OC(C)C)cc4)nc32)ccc1CN1CCOCC1 [Example 111, (4-Isopropoxy-phenyl)-[7-(3-methyl-4-morpholin-4-ylmethyl-phenyl)-7H-pyrrolo[2,3-d]pyrimidin-2-yl]-amine]	6.07	7.84
CC(C)Oc1ccc(Nc2ncc3ccn(-c4ccc(CN5CCS(=O)(=O)CC5)c(F)c4)c3n2)cc1 [Example 112, {7-[4-(1,1-Dioxido-thiomorpholin-4-ylmethyl)-3-fluoro-phenyl]-7H-pyrrolo[2,3-d]pyrimidin-2-yl}-(4-isopropoxy-phenyl)-amine]	7.14	> 8.52
CC(C)Oc1ccc(Nc2ncc3ccn(-c4ccc(CN5CCS(=O)(=O)CC5)c(Cl)c4)c3n2)cc1 [Example 113, {7-[3-Chloro-4-(1,1-dioxido-thiomorpholin-4-ylmethyl)-phenyl]-7H-pyrrolo[2,3-d]pyrimidin-2-yl}-(4-isopropoxy-phenyl)-amine]	6.97	8.38
CC(C)Oc1ccc(Nc2ncc3ccn(-c4ccc(C(C)O)cc4)c3n2)cc1 (stereo not drawn) [Example 114, 1-{4-[2-(4-Isopropoxy-phenylamino)-pyrrolo[2,3-d]pyrimidin-7-yl]-phenyl}-ethanol]	6.70	8.23
CC(C)Oc1ccc(Nc2ncc3ccn(-c4ccc(CCN5CCOCC5)cc4)c3n2)cc1 [Example 115, (4-Isopropoxy-phenyl)-{7-[4-(2-morpholin-4-yl-ethyl)-phenyl]-7H-pyrrolo[2,3-d]pyrimidin-2-yl}-amine]	6.15	7.80
Cc1ccc(Nc2ncc3ccn(-c4ccc(C5(C(=O)N6CCN(C)CC6)CC5)cc4)c3n2)cc1Cl [Example 117, (1-{4-[2-(3-Chloro-4-methyl-phenylamino)-pyrrolo[2,3-d]pyrimidin-7-yl]-phenyl}-cyclopropyl)-(4-methyl-piperazin-1-yl)-methanone]	6.42	8.03
Cc1ccc(Nc2ncc3ccn(-c4ccc(CN5CCOCC5)c(F)c4)c3n2)cc1Cl [Example 118, (3-Chloro-4-methyl-phenyl)-[7-(3-fluoro-4-morpholin-4-ylmethyl-phenyl)-7H-pyrrolo[2,3-d]pyrimidin-2-yl]-amine]	5.82	7.12
Cc1ccc(Nc2ncc3ccn(-c4ccc(CN5CCOCC5)cc4)c3n2)cc1Cl [Example 119, (3-Chloro-4-methyl-phenyl)-[7-(4-morpholin-4-ylmethyl-phenyl)-7H-pyrrolo[2,3-d]pyrimidin-2-yl]-amine]	5.76	7.06
Cc1ccc(Nc2ncc3ccn(-c4ccc(CN5CCS(=O)(=O)CC5)c(F)c4)c3n2)cc1Cl [Example 121, (3-Chloro-4-methyl-phenyl)-{7-[4-(1,1-dioxido-thiomorpholin-4-ylmethyl)-3-fluoro-phenyl]-7H-pyrrolo[2,3-d]pyrimidin-2-yl}-amine]	6.82	7.81
Cc1cc(Nc2ncc3ccn(-c4ccc(C5(C(=O)N6CCN(C)CC6)CC5)cc4)c3n2)ccc1F [Example 122, (1-{4-[2-(4-Fluoro-3-methyl-phenylamino)-pyrrolo[2,3-d]pyrimidin-7-yl]-phenyl}-cyclopropyl)-(4-methyl-piperazin-1-yl)-methanone]	6.78	8.48
Cc1cc(Nc2ncc3ccn(-c4ccc(CN5CCOCC5)cc4)c3n2)ccc1F [Example 123, (4-Fluoro-3-methyl-phenyl)-[7-(4-morpholin-4-ylmethyl-phenyl)-7H-pyrrolo[2,3-d]pyrimidin-2-yl]-amine]	6.10	7.55

Other lines, results leading:

pIC50 [1]	pIC50 (GST-JAK2(808-1132))	SMILES
5.08	7.48	CCN1CCN(Cc2ccc(-n3ccc4cnc(Nc5ccc(OC(C)C)cc5)nc43)cc2F)CC1 [Example 106, {7-[4-(4-Ethyl-piperazin-1-ylmethyl)-3-fluoro-phenyl]-7H-pyrrolo[2,3-d]pyrimidin-2-yl}-(4-isopropoxy-phenyl)-amine]
6.25	7.90	Cc1ccc(Nc2ncc3ccn(-c4cc(F)c(C(=O)N5CCOCC5)c(F)c4)c3n2)cc1Cl [Example 116, {4-[2-(3-Chloro-4-methyl-phenylamino)-pyrrolo[2,3-d]pyrimidin-7-yl]-2,6-difluoro-phenyl}-morpholin-4-yl-methanone]
5.11	6.81	CCN1CCN(Cc2ccc(-n3ccc4cnc(Nc5ccc(C)c(Cl)c5)nc43)cc2F)CC1 [Example 120, (3-Chloro-4-methyl-phenyl)-{7-[4-(4-ethyl-piperazin-1-ylmethyl)-3-fluoro-phenyl]-7H-pyrrolo[2,3-d]pyrimidin-2-yl}-amine]
5.67	7.07	CCN1CCN(Cc2ccc(-n3ccc4cnc(Nc5ccc(F)c(C)c5)nc43)cc2F)CC1 [Example 124, {7-[4-(4-Ethyl-piperazin-1-ylmethyl)-3-fluoro-phenyl]-7H-pyrrolo[2,3-d]pyrimidin-2-yl}-(4-fluoro-3-methyl-phenyl)-amine]
6.92	> 8.52	Cc1cc(Nc2ncc3ccn(-c4ccc(CN5CCS(=O)(=O)CC5)c(F)c4)c3n2)ccc1F [Example 125, {7-[4-(1,1-Dioxido-thiomorpholin-4-ylmethyl)-3-fluoro-phenyl]-7H-pyrrolo[2,3-d]pyrimidin-2-yl}-(4-fluoro-3-methyl-phenyl)-amine]
5.79	7.96	CC(C)Oc1ccc(Nc2ncc3ccn(-c4cc(F)c(CN5CCOCC5)c(F)c4)c3n2)cc1 [Example 126, [7-(3,5-Difluoro-4-morpholin-4-ylmethyl-phenyl)-7H-pyrrolo[2,3-d]pyrimidin-2-yl]-(4-isopropoxy-phenyl)-amine]
6.14	7.98	Cc1cc(Nc2ncc3ccn(-c4ccc(CN5CCOCC5)c(F)c4)c3n2)ccc1F [Example 127, (4-Fluoro-3-methyl-phenyl)-[7-(3-fluoro-4-morpholin-4-ylmethyl-phenyl)-7H-pyrrolo[2,3-d]pyrimidin-2-yl]-amine]
5.43	6.92	Cc1ccc(Nc2ncc3ccn(-c4cc(F)c(CN5CCOCC5)c(F)c4)c3n2)cc1Cl [Example 128, (3-Chloro-4-methyl-phenyl)-[7-(3,5-difluoro-4-morpholin-4-ylmethyl-phenyl)-7H-pyrrolo[2,3-d]pyrimidin-2-yl]-amine]
6.33	8.05	Cc1ccc(Nc2ncc3ccn(-c4cc(F)c(CN5CCS(=O)(=O)CC5)c(F)c4)c3n2)cc1Cl [Example 129, (3-Chloro-4-methyl-phenyl)-{7-[4-(1,1-dioxido-thiomorpholin-4-ylmethyl)-3,5-difluoro-phenyl]-7H-pyrrolo[2,3-d]pyrimidin-2-yl}-amine]
5.08	6.94	CCN1CCN(Cc2c(F)cc(-n3ccc4cnc(Nc5ccc(C)c(Cl)c5)nc43)cc2F)CC1 [Example 130, (3-Chloro-4-methyl-phenyl)-{7-[4-(4-ethyl-piperazin-1-ylmethyl)-3,5-difluoro-phenyl]-7H-pyrrolo[2,3-d]pyrimidin-2-yl}-amine]
5.82	7.80	Cc1cc(Nc2ncc3ccn(-c4cc(F)c(CN5CCOCC5)c(F)c4)c3n2)ccc1F [Example 131, [7-(3,5-Difluoro-4-morpholin-4-ylmethyl-phenyl)-7H-pyrrolo[2,3-d]pyrimidin-2-yl]-(4-fluoro-3-methyl-phenyl)-amine]
5.20	7.39	CCN1CCN(Cc2c(F)cc(-n3ccc4cnc(Nc5ccc(F)c(C)c5)nc43)cc2F)CC1 [Example 132, {7-[4-(4-Ethyl-piperazin-1-ylmethyl)-3,5-difluoro-phenyl]-7H-pyrrolo[2,3-d]pyrimidin-2-yl}-(4-fluoro-3-methyl-phenyl)-amine]

Source: patent US8420657B2 (Novartis AG, priority 2008, dated 2013)
